Tests used:
[1] = cumulative food intake, lean mice (Model A), BioDaQ system; format: in vivo; conditions: Table 1; lean male C57BL/6 mice, 1 mg/kg s.c., cumulative food intake after 6 h, relative to vehicle; negative = reduction
Procedure: (§1) Cumulative food intake after 6 h was determined for the PYY analogs in either lean (Model A) or diet-induced obese (DIO) (Model B) C57BL/6 mice in a BioDaQ system for continuous monitoring of food intake (Research Diets Inc., New Brunswick, N.J.). […] Mice were placed singly into the BioDaQ cages and acclimatized for a minimum of 6 days and were allowed ad libitum access to food and water. Approximately 1 hour prior to lights-out, animals were dosed subcutaneously with either vehicle (20 mM Acetate buffer, pH 4.9 or 20% DMSO in water) or analogs dissolved in vehicle (1 mg/kg) (8 animals per group). Once all animals have been dosed, feeder gates were opened providing ad-libitum access to food. Continuous food intake was monitored and collected for 15 hours. […] P-values <0.05 were considered to indicate a significant difference between treatment groups.

[2] = target: T1, human Neuropeptide Y receptor type 2 (Homo sapiens, UniProt P49146); assay: melanophore assay, potency at human Neuropeptide Y receptor type 2; format: cell-based; conditions: Table 1, read-out: hNPY Y2 pEC50 (converted)
T1 construct: expressed in transfected cells; host or cells: melanophores (own knowledge: Xenopus laevis melanophores transfected with the receptor, as in the cited protocol)
T1 sequence (P49146 1-381): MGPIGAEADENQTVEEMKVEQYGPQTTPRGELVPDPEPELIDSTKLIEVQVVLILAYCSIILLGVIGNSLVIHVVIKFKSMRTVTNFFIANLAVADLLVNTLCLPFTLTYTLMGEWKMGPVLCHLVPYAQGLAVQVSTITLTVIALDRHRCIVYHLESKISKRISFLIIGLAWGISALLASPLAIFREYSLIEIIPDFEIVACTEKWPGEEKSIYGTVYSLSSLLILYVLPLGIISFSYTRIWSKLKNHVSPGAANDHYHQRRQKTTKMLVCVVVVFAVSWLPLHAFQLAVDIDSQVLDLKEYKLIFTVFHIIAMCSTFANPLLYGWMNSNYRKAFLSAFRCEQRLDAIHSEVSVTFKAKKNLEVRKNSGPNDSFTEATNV

[3] = cumulative food intake, diet-induced obese mice (Model B), BioDaQ system; format: in vivo; conditions: Table 1; DIO male C57BL/6 mice, 1 mg/kg s.c., cumulative food intake after 6 h, relative to vehicle; negative = reduction
Procedure: as §1

Row | EC50 [2] [nM] | Structure (SMILES) | % reduction in food intake, model A [1] [%] | % reduction in food intake, model B [3] [%]
1 | 0.02 | CC(C)C[C@H](NC(=O)[C@H](CC(=O)O)NC(=O)[C@H](C)NC(=O)[C@H](Cc1ccc(O)cc1)NC(=O)[C@H](Cc1ccc(O)cc1)NC(=O)[C@H](CCCNC(=N)N)NC(=O)[C@H](CC(N)=O)NC(=O)[C@H](Cc1c[nH]c2ccccc12)NC(=O)[C@H](CCC(=O)O)NC(=O)[C@H](CCC(=O)O)NC(=O)[C@@H]1CCCN1C(=O)[C@H](CO)NC(=O)[C@H](C)NC(=O)[C@H](CC(=O)O)NC(=O)[C@H](CCCCN)NC(=O)CNC(=O)[C@@H]1CCCN1C(=O)[C@H](C)NC(=O)[C@H](CCC(=O)O)NC(=O)[C@@H]1CCCN1C(=O)[C@H](CCCCN)NC(=O)[C@@H]1CCCN1)C(=O)N[C@@H](CCCNC(=N)N)C(=O)N[C@@H](CCCCN)C(=O)N[C@@H](Cc1ccc(O)cc1)C(=O)N[C@@H](CC(C)C)C(=O)N[C@@H](CC(N)=O)C(=O)N[C@@H](Cc1c[nH]c2ccccc12)C(=O)N[C@@H](CC(C)C)C(=O)N[C@H](C(=O)N[C@@H](CCCNC(=N)N)C(=O)N[C@@H](CCC(N)=O)C(=O)N[C@@H](CCCNC(=N)N)C(=O)N[C@@H](Cc1ccc(O)cc1)C(N)=O)[C@@H](C)O [Example 4] | −83 | 
2 |  | CC(C)C[C@H](NC(=O)[C@H](CO)NC(=O)[C@H](C)NC(=O)[C@H](Cc1ccc(O)cc1)NC(=O)[C@H](Cc1ccc(O)cc1)NC(=O)[C@H](CCCNC(=N)N)NC(=O)[C@H](CC(N)=O)NC(=O)[C@H](Cc1c[nH]c2ccccc12)NC(=O)[C@H](CCC(=O)O)NC(=O)[C@H](CCC(=O)O)NC(=O)[C@@H]1CCCN1C(=O)[C@H](CO)NC(=O)[C@H](C)NC(=O)[C@H](CC(=O)O)NC(=O)[C@H](CCCCN)NC(=O)CNC(=O)[C@@H]1CCCN1C(=O)[C@H](Cc1c[nH]cn1)NC(=O)[C@H](CCC(=O)O)NC(=O)[C@@H]1CCCN1C(=O)[C@H](CCCCN)NC(=O)[C@@H]1CCCN1)C(=O)N[C@@H](CCCNC(=N)N)C(=O)N[C@@H](CCCCN)C(=O)N[C@@H](Cc1ccc(O)cc1)C(=O)N[C@@H](CC(C)C)C(=O)N[C@@H](CC(N)=O)C(=O)N[C@@H](Cc1c[nH]c2ccccc12)C(=O)N[C@H](C(=O)N[C@H](C(=O)N[C@@H](CCCNC(=N)N)C(=O)N[C@@H](CCC(N)=O)C(=O)N[C@@H](CCCNC(=N)N)C(=O)N[C@@H](Cc1ccc(O)cc1)C(N)=O)[C@@H](C)O)C(C)C [Example 25] |  | −68

Source: patent US9441023B2, “Peptide YY analogs” (GlaxoSmithKline Intellectual Property Development Limited, priority 2013, dated 2016)
